According to US20150045610A1, “METHOD OF MODIFYING SPERMATOGENESIS, SPERMIOGENESIS AND/OR FERTILITY IN MAMMALS” (Monell Chemical Senses Center, priority 2012, published 2015):
Converted amounts (≈) assume the structure as drawn.

Legend:
[1] = system: PDE 1; settings: cited from earlier work
[2] = system: PDE 8; settings: read-out: IC50, PDE 8; cited from earlier work
[3] = target: T1, humanized mhT1R3 (Homo sapiens, UniProt Q7RTX0, A109T/A120V/A176D/A197V/A198V/A228S/A231N/A248T/A280V/A282S/A302S/A412V/A417V/A46T/A537T/C375D/D124S/D249S/D250G/D364H/D419E/D470T/D491G/D88A/DEL352-352/DEL488-489/E172D/E199T/E203N/E217D/E356N/E45S/E481Q/E505D/E525K/E545Q/F540P/F555L/G168S/G205S/G311T/G314N/G355L/G360D/G414H/G438R/G439D/G463S/G50T/G542N/H261R/H278R/H281Y/H332P/I485M/I536F/INS376MLQNLSSG/K32Q/K339E/K422L/K494V/K86G/L173R/L245Q/L272V/L29F/L354S/L385Q/L433M/L458M/L483S/L71F/L74M/M151L/M315I/M318V/M31A/N285S/N386L/N532H/N68L/P112S/P246H/P335S/P416H/P420H/P441T/P60I/Q221E/Q257L/Q317R/Q330L/Q336H/Q359L/Q372R/Q418S/Q504K/Q531K/R123Q/R247D/R252Q/R291G/R30K/R357A/R443Q/R467V/R473T/R479Q/R482Q/R486Y/R498Q/R52N/R550K/R553A/R556P/R560K/R56Q/S251Q/S267K/S289H/S290H/S392A/S446A/S447E/S464P/S477T/S490P/S53Q/S559P/S58N/S67P/T195Q/T346A/T377L/T390I/T434S/T480L/T63N/V152I/V277A/V366M/V36I/V381L/V393T/V437A/V465T/V61P/W72L); experiment: T1R3 pharmacological block with clofibrate diet (male reproduction); type: in vivo, mouse; settings: clofibrate diet 300 mg/kg body weight, line 7c and WT males
T1 construct: the extracellular domain is of mouse origin and the transmembrane and intracellular domains of human origin; mouse T1R3 extracellular domain (fusion partner replacing the human extracellular domain); expressed in transfected cells; host or cells: transgenic Line 7c mice (T1R3-/-, Gus-/-, mhT1R3+/-)
T1 sequence (Q7RTX0 with tags, fused parts or gaps L29F/R30K/M31A/K32Q/V36I/E45S/A46T/G50T/R52N/S53Q/R56Q/S58N/P60I/V61P/T63N/S67P/N68L/L71F/W72L/L74M/K86G/D88A/A109T/P112S/A120V/R123Q/D124S/M151L/V152I/G168S/E172D/L173R/A176D/T195Q/A197V/A198V/E199T/E203N/G205S/E217D/Q221E/A228S/A231N/L245Q/P246H/R247D/A248T/D249S/D250G/S251Q/R252Q/Q257L/H261R/S267K/L272V/V277A/H278R/A280V/H281Y/A282S/N285S/S289H/S290H/R291G/A302S/G311T/G314N/M315I/Q317R/M318V/Q330L/H332P/P335S/Q336H/K339E/T346A/DEL352-352/L354S/G355L/E356N/R357A/Q359L/G360D/D364H/V366M/Q372R/C375D/INS376MLQNLSSG/T377L/V381L/L385Q/N386L/T390I/S392A/V393T/A412V/G414H/P416H/A417V/Q418S/D419E/P420H/K422L/L433M/T434S/V437A/G438R/G439D/P441T/R443Q/S446A/S447E/L458M/G463S/S464P/V465T/R467V/D470T/R473T/S477T/R479Q/T480L/E481Q/R482Q/L483S/I485M/R486Y/DEL488-489/S490P/D491G/K494V/R498Q/Q504K/E505D/E525K/Q531K/N532H/I536F/A537T/F540P/G542N/E545Q/R550K/R553A/F555L/R556P/S559P/R560K limits assumed): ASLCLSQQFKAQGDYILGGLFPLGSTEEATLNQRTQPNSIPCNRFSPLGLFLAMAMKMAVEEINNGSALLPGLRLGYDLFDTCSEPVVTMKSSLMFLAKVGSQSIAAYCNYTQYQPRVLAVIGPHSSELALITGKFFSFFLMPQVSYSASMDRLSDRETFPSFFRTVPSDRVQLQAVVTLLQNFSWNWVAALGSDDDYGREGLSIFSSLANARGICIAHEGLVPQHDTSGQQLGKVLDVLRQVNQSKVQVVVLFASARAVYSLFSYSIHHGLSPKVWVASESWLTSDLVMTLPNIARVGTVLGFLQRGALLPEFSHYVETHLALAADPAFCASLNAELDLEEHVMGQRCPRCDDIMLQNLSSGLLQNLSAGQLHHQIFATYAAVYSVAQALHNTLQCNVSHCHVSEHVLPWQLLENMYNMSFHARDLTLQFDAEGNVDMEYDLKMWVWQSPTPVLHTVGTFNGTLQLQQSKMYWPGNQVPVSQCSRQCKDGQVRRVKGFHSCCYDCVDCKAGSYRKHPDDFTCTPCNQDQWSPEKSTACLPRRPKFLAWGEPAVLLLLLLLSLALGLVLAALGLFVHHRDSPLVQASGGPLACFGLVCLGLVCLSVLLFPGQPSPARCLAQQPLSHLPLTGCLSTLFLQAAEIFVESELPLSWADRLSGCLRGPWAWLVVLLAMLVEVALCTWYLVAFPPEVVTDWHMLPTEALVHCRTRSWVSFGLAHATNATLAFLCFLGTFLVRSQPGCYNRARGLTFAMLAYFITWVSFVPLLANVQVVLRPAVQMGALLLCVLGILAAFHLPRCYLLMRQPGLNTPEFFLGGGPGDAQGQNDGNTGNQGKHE
Description: Matched groups (six males each) of WT and line 7c mice (expressing the chimerical mhT1R3 transgene on a T1R3/α-gustducin double-null background), 3-6 months old, were fed the indicated diets for 4-6 weeks. Each genotype was tested in two groups, one on the regular diet and one on a test diet with clofibrate. An additional group of males stayed on the test diet for another 4-6 weeks, during which time they were mated with WT females to determine whether the pharmacological intervention was effective. Then the animals were allowed to recover on the regular diet for an additional 4 weeks after the end of the treatment (half-time for total sperm turnover in mice), and again were tested for their reproductive capacity, and then their tissues were analyzed. […]
We observed spermatozoa after clofibrate treatment represent cells that were able to escape the inhibition of clofibric acid, most likely due to very fast clearance and fluctuating levels in rodents. […] Therefore, we measured sperm concentration as an indicator of efficiency of the pharmacological block and to be able to determine the concentration that results in effective sterility. We analyzed testicular morphology, sperm production, sperm motility and sperm function in in vitro fertilization after feeding these animals with the lipid lowering drug clofibrate. […]

[4] = solubility; type: physicochemical
[5] = system: PDE 4; settings: quantity not given; read-out: inhibition of PDE 4; cited from earlier work

CCOC(=O)C1=C[C@]2(CC)CCCN3CCc4c(n1c1ccccc41)[C@@H]32 [Vinpocetine]
IC50 [1]: 10 µM

OCCN(CCO)c1nc(N2CCCCC2)c2nc(N(CCO)CCO)nc(N3CCCCC3)c2n1 [Dipyridamole]
IC50 [2]: 4 to 9 µM

CCOC(=O)C(C)(C)Oc1ccc(Cl)cc1 [clofibrate]
effect on the health of the animals [3]: no apparent effect | solubility [4]: 5000 µg/mL (≈ 20.6 mM)
